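Step 1: Grow cells in 96-well plates. Step 2: Expose to compound for 48 hours at 5 concentrations. Step 3: Interpolate endpoints linearly; if unreached, use highest concentration. GI50 = concentration required for 50% inhibition of growth. TGI denotes the concentration required for complete inhibition of growth.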
Columns and labels:
Test in all cases: inhibition of tumour cell growth, NCI panel, 48 h
[1] = tested on: OVCAR-5 ovarian
[2] = tested on: HCC-2998 colon
[3] = tested on: UO-31 renal
[4] = tested on: HL-60(TB) leukemia
[5] = tested on: NCI-H23 lung
[6] = tested on: 786-0 renal
[7] = tested on: UACC-62 melanoma
[8] = tested on: SK-MEL-28 melanoma
[9] = tested on: LOX IMVI melanoma
[10] = tested on: MDA-MB-231 breast

| SMILES | TGI [1] | TGI [2] | TGI [3] | TGI [4] | TGI [5] | TGI [6] | TGI [7] | TGI [8] | TGI [9] | GI50 [1] | GI50 [9] | GI50 [2] | GI50 [3] | GI50 [5] | GI50 [6] | GI50 [7] | GI50 [8] | TGI [10] | GI50 [10] |
| --- | --- | --- | --- | --- | --- | --- | --- | --- | --- | --- | --- | --- | --- | --- | --- | --- | --- | --- | --- |
| CC(=O)O[C@H]1CC[C@@]2(C)C(=CC[C@@H]3C2CC[C@]2(C)Nc4[nH]ncc4CC32)C1 (some centres undefined) | > 100 µM | > 100 µM | > 100 µM | 53.5 µM | > 100 µM | > 100 µM | 57.1 µM | > 100 µM | – | – | – | – | – | – | – | – | – | – | – |
| COc1ccccc1NC(=O)CC(=O)NNCC(=O)Nc1nnc(-c2ccccc2)o1 | > 100 µM | > 100 µM | > 100 µM | – | > 100 µM | > 100 µM | > 100 µM | > 100 µM | > 100 µM | – | – | – | – | – | – | – | – | – | – |
| CCC[CH2][Sn]1([CH2]CCC)[O]C(=O)CN=Cc2ccccc2[O]1 | 2.98 µM | 1.81 µM | 1.77 µM | – | 0.333 µM | 1.73 µM | 0.46 µM | 1.1 µM | 0.527 µM | 1.63 µM | 0.205 µM | 0.525 µM | 0.512 µM | 0.136 µM | 0.517 µM | 0.197 µM | 0.343 µM | – | – |
| CC1=CC2CC(C)C1(C)CCc1ccoc12 (centres undefined) | > 100 µM | > 100 µM | > 100 µM | > 100 µM | > 100 µM | > 100 µM | > 100 µM | > 100 µM | > 100 µM | – | – | – | – | – | – | – | – | – | – |
| CN1CCC(n2[nH]c(-c3ccccc3)c(Cc3ccccc3)c2=O)CC1 | > 100 µM | > 100 µM | > 100 µM | – | > 100 µM | > 100 µM | > 100 µM | > 100 µM | > 100 µM | – | – | – | – | – | – | – | – | > 100 µM | – |
| O=C1CC/C(=C\COc2ccc3ccc(=O)oc3c2)O1 | 34.8 µM | 35.6 µM | 21.4 µM | – | 30 µM | 15.9 µM | 24.7 µM | 32.7 µM | 20.6 µM | 17.3 µM | 6.96 µM | 17 µM | 6.41 µM | 11.7 µM | 2.89 µM | 10.8 µM | 15.3 µM | 29.4 µM | 13.8 µM |
| Cc1c(O)c(=O)ccn1CCO | > 100 µM | – | > 100 µM | > 100 µM | – | > 100 µM | > 100 µM | > 100 µM | > 100 µM | – | – | – | – | – | – | – | – | – | – |
| Cc1ccc2[nH]c(C(=O)NN3C(=O)C(C)SC34CCCCC4C)c(-c3ccccc3)c2c1 (centres undefined) | 40.3 µM | 35.5 µM | 32.6 µM | – | 53.5 µM | 50.9 µM | 28.3 µM | 38.8 µM | 35.4 µM | 20.3 µM | 18.9 µM | 19.5 µM | 16.8 µM | 24.7 µM | 22.2 µM | 13.4 µM | 19.4 µM | 34.9 µM | 17.4 µM |
| C=CCN(CC=C)CC(C(C)=O)C(c1ccccc1)c1c(O)c2ccccc2oc1=O (centres undefined) | > 100 µM | > 100 µM | > 100 µM | > 100 µM | > 100 µM | > 100 µM | > 100 µM | > 100 µM | > 100 µM | – | – | – | – | – | – | – | – | – | – |
| O=C(O)c1ccc(C2C3C=CC(C3)C2[N+](=O)[O-])cc1 (centres undefined) | – | > 100 µM | > 100 µM | > 100 µM | > 100 µM | > 100 µM | > 100 µM | > 100 µM | > 100 µM | – | – | – | – | – | – | – | – | – | – |
| Cn1c(=O)oc2cc(C3CCC(=O)N3Cc3ccc(Cl)cc3)ccc21 (centres undefined) | > 100 µM | > 100 µM | > 100 µM | > 100 µM | > 100 µM | > 100 µM | > 100 µM | > 100 µM | > 100 µM | – | – | – | – | – | – | – | – | – | – |
| NC(=O)NCCSC1CCCCC1O (centres undefined) | > 100 µM | – | > 100 µM | – | > 100 µM | > 100 µM | > 100 µM | > 100 µM | > 100 µM | – | – | – | – | – | – | – | – | > 100 µM | – |
| COc1ccccc1NC(=O)C1=C(C)NC(C)=C(C(=O)Nc2ccccc2OC)C1c1cccc2c1OCO2 | > 100 µM | > 100 µM | > 100 µM | > 100 µM | > 100 µM | > 100 µM | > 100 µM | > 100 µM | > 100 µM | – | – | – | – | – | – | – | – | – | – |
| O=C(O)CCCNS(=O)(=O)c1ccc2ccccc2c1 | > 100 µM | > 100 µM | > 100 µM | > 100 µM | > 100 µM | > 100 µM | > 100 µM | > 100 µM | > 100 µM | – | – | – | – | – | – | – | – | – | – |
| COc1cc(OC)cc(-c2cncn2-c2ccc(-c3nc4cc(OC)cc(OC)c4s3)cc2)c1 | > 100 µM | > 100 µM | – | – | > 100 µM | > 100 µM | > 100 µM | > 100 µM | > 100 µM | > 100 µM | 5.48 µM | > 100 µM | – | 10.3 µM | 7.6 µM | 4.75 µM | > 100 µM | > 100 µM | 9.01 µM |
| c1cncc(CNc2ncn[nH]2)c1 | > 100 µM | – | > 100 µM | – | > 100 µM | > 100 µM | > 100 µM | > 100 µM | > 100 µM | – | – | – | – | – | – | – | – | > 100 µM | – |

From PubChem BioAssay (NCI)
